Test system: 171881-019-R-J1-PDC tumor spheroids, viability
Assay: Anticancer human tumor 171881-019-R-J1-PDC patient-derived invasive breast carcinoma cell line growth inhibition [GQUAD]
Conditions: spheroids with HUVEC and MSC; for IC50: curve of first compound; for viability, T/C: stronger effect = lower value
In short: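 Multi-cell-type spheroids of tumor cells with HUVEC and mesenchymal stem cells, treated with drug combinations. Concentrations descend in half-log steps from near clinical Cmax, or from 10 microM where Cmax is unknown; viability read-out.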

[1] = second compound 0.0316 µM, first compound 0.0316 µM
[2] = second compound 0.0316 µM, first compound 0.1 µM
[3] = second compound 0.0316 µM, first compound 0.316 µM
[4] = second compound 0.0316 µM, first compound 1 µM
[5] = second compound 0.0316 µM, first compound 3.16 µM
[6] = second compound 0.0316 µM, first compound 10 µM
[7] = second compound 0.1 µM, first compound 0.0316 µM
[8] = second compound 0.1 µM, first compound 0.1 µM
[9] = second compound 0.1 µM, first compound 0.316 µM
[10] = second compound 0.1 µM, first compound 1 µM
[11] = second compound 0.1 µM, first compound 3.16 µM
[12] = second compound 0.1 µM, first compound 10 µM
[13] = second compound 0.316 µM, first compound 0.0316 µM
[14] = second compound 0.316 µM, first compound 0.1 µM
[15] = second compound 0.316 µM, first compound 0.316 µM
[16] = second compound 0.316 µM, first compound 1 µM
[17] = second compound 0.316 µM, first compound 3.16 µM
[18] = second compound 0.316 µM, first compound 10 µM
[19] = second compound 1 µM, first compound 0.0316 µM
[20] = second compound 1 µM, first compound 0.1 µM
[21] = second compound 1 µM, first compound 0.316 µM
[22] = second compound 1 µM, first compound 1 µM
[23] = second compound 1 µM, first compound 3.16 µM
[24] = second compound 1 µM, first compound 10 µM
[25] = second compound 3.16 µM, first compound 0.0316 µM
[26] = second compound 3.16 µM, first compound 0.1 µM
[27] = second compound 3.16 µM, first compound 0.316 µM
[28] = second compound 3.16 µM, first compound 1 µM
[29] = second compound 3.16 µM, first compound 3.16 µM
[30] = second compound 3.16 µM, first compound 10 µM
[31] = second compound 10 µM, first compound 0.0316 µM
[32] = second compound 10 µM, first compound 0.1 µM
[33] = second compound 10 µM, first compound 0.316 µM
[34] = second compound 10 µM, first compound 1 µM
[35] = second compound 10 µM, first compound 3.16 µM
[36] = second compound 10 µM, first compound 10 µM
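Note: spheroids exposed to compounds for 7 days.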
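Throughout, for viability, T/C: 100% = DMSO vehicle control viability.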

`CC(=O)O[C@H]1C(=O)[C@@]2(C)[C@H]([C@H](OC(=O)c3ccccc3)[C@]3(O)C[C@H](OC(=O)[C@H](O)[C@@H](NC(=O)c4ccccc4)c4ccccc4)C(C)=C1C3(C)C)[C@]1(OC(C)=O)CO[C@@H]1C[C@@H]2O` + Cc1[nH]c2ccc(F)cc2c1-c1nc2c3cccnc3c3ncccc3c2[nH]1 was tested. Which IC50 (second compound 0.0316 µM) did it give?
The IC50 was less than 31.6 nM.

What about the IC50 (second compound 0.1 µM) of the same compound?
The IC50 was 36.8 nM.

And the IC50 (second compound 0.316 µM)?
Its IC50 is 32.2 nM.

What about the IC50 (second compound 1 µM) of the same compound?
The IC50 was less than 31.6 nM.

What about the IC50 (second compound 3.16 µM) of the same compound?
Its IC50 is less than 31.6 nM.

And the IC50 (second compound 10 µM)?
The IC50 was less than 31.6 nM.

What about the viability, T/C [1] of the same compound?
The viability, T/C was 52.2%.

And the viability, T/C [2]?
Its viability, T/C is 32.3%.

And the viability, T/C [3]?
The viability, T/C was 35.5%.

What about the viability, T/C [4] of the same compound?
Its viability, T/C is 30.8%.

And the viability, T/C [5]?
The viability, T/C was 28.9%.

What about the viability, T/C [6] of the same compound?
Its viability, T/C is 30.1%.

And the viability, T/C [7]?
The viability, T/C was 52.5%.

And the viability, T/C [8]?
Its viability, T/C is 33.2%.

And the viability, T/C [9]?
Its viability, T/C is 29.5%.

And the viability, T/C [10]?
Its viability, T/C is 31%.

And the viability, T/C [11]?
The viability, T/C was 28.3%.

And the viability, T/C [12]?
The viability, T/C was 28.7%.

And the viability, T/C [13]?
Its viability, T/C is 50.2%.

And the viability, T/C [14]?
Its viability, T/C is 35.5%.

What about the viability, T/C [15] of the same compound?
Its viability, T/C is 28.8%.

And the viability, T/C [16]?
The viability, T/C was 29.5%.

And the viability, T/C [17]?
The viability, T/C was 29.7%.

What about the viability, T/C [18] of the same compound?
The viability, T/C was 26.8%.

What about the viability, T/C [19] of the same compound?
Its viability, T/C is 41.2%.

And the viability, T/C [20]?
Its viability, T/C is 30.2%.

And the viability, T/C [21]?
The viability, T/C was 32.1%.

And the viability, T/C [22]?
The viability, T/C was 24.9%.

And the viability, T/C [23]?
The viability, T/C was 29.7%.

What about the viability, T/C [24] of the same compound?
Its viability, T/C is 24.6%.

What about the viability, T/C [25] of the same compound?
The viability, T/C was 6.75%.

What about the viability, T/C [26] of the same compound?
The viability, T/C was 4.71%.

And the viability, T/C [27]?
Its viability, T/C is 4.42%.

And the viability, T/C [28]?
Its viability, T/C is 3.51%.

What about the viability, T/C [29] of the same compound?
The viability, T/C was 5.16%.

What about the viability, T/C [30] of the same compound?
The viability, T/C was 3.23%.

What about the viability, T/C [31] of the same compound?
The viability, T/C was 27.3%.

And the viability, T/C [32]?
Its viability, T/C is 25.1%.

What about the viability, T/C [33] of the same compound?
The viability, T/C was 17.3%.

What about the viability, T/C [34] of the same compound?
Its viability, T/C is 21.1%.

What about the viability, T/C [35] of the same compound?
Its viability, T/C is 23.2%.

What about the viability, T/C [36] of the same compound?
The viability, T/C was 18.3%.

`Nc1ccn(C2OC(CO)C(O)C2(F)F)c(=O)n1` (stereo unspecified) + Cc1cnc(CNC(=O)c2c(=O)c3ccc(N4CCCN(C)CC4)nc3n3c2sc2ccccc23)cn1 was tested. Which IC50 (second compound 0.0316 µM) did it give?
The IC50 was less than 31.6 nM.

And the IC50 (second compound 0.1 µM)?
Its IC50 is less than 31.6 nM.

And the IC50 (second compound 0.316 µM)?
Its IC50 is less than 31.6 nM.

And the IC50 (second compound 1 µM)?
The IC50 was less than 31.6 nM.

What about the IC50 (second compound 3.16 µM) of the same compound?
The IC50 was less than 31.6 nM.

What about the IC50 (second compound 10 µM) of the same compound?
Its IC50 is less than 31.6 nM.

And the viability, T/C [1]?
Its viability, T/C is 27.8%.

What about the viability, T/C [2] of the same compound?
The viability, T/C was 29.9%.

What about the viability, T/C [3] of the same compound?
The viability, T/C was 39.4%.

What about the viability, T/C [4] of the same compound?
The viability, T/C was 38%.

And the viability, T/C [5]?
The viability, T/C was 33.7%.

What about the viability, T/C [6] of the same compound?
The viability, T/C was 31.2%.

And the viability, T/C [7]?
Its viability, T/C is 29.8%.

And the viability, T/C [8]?
The viability, T/C was 31.9%.

And the viability, T/C [9]?
The viability, T/C was 37.1%.

And the viability, T/C [10]?
Its viability, T/C is 41.4%.

And the viability, T/C [11]?
Its viability, T/C is 37%.

And the viability, T/C [12]?
Its viability, T/C is 33.8%.

And the viability, T/C [13]?
Its viability, T/C is 31.5%.

What about the viability, T/C [14] of the same compound?
Its viability, T/C is 36.2%.

And the viability, T/C [15]?
The viability, T/C was 44%.

And the viability, T/C [16]?
Its viability, T/C is 37.9%.

And the viability, T/C [17]?
Its viability, T/C is 39.1%.

What about the viability, T/C [18] of the same compound?
Its viability, T/C is 34.7%.

What about the viability, T/C [19] of the same compound?
The viability, T/C was 35%.

What about the viability, T/C [20] of the same compound?
Its viability, T/C is 35.6%.

What about the viability, T/C [21] of the same compound?
Its viability, T/C is 42.7%.

What about the viability, T/C [22] of the same compound?
The viability, T/C was 41.2%.

And the viability, T/C [23]?
The viability, T/C was 44.2%.

And the viability, T/C [24]?
Its viability, T/C is 37.3%.

What about the viability, T/C [25] of the same compound?
The viability, T/C was 36.2%.

And the viability, T/C [26]?
Its viability, T/C is 38.6%.

What about the viability, T/C [27] of the same compound?
The viability, T/C was 43.8%.

What about the viability, T/C [28] of the same compound?
Its viability, T/C is 43.3%.

And the viability, T/C [29]?
The viability, T/C was 44.9%.

And the viability, T/C [30]?
The viability, T/C was 40%.

What about the viability, T/C [31] of the same compound?
The viability, T/C was 33.2%.

What about the viability, T/C [32] of the same compound?
Its viability, T/C is 37.3%.

What about the viability, T/C [33] of the same compound?
Its viability, T/C is 39.1%.

And the viability, T/C [34]?
Its viability, T/C is 45.6%.

What about the viability, T/C [35] of the same compound?
Its viability, T/C is 46%.

What about the viability, T/C [36] of the same compound?
Its viability, T/C is 40.8%.

Which results are given for `C=CC(=O)N1CCN(c2nc(=O)n(-c3c(C)ccnc3C(C)C)c3nc(-c4c(O)cccc4F)c(F)cc23)C(C)C1` (stereo unspecified) + Cc1[nH]c2ccc(F)cc2c1-c1nc2c3cccnc3c3ncccc3c2[nH]1?
IC50 (second compound 0.0316 µM): 9200 nM; IC50 (second compound 0.1 µM): 9550 nM; IC50 (second compound 0.316 µM): 8670 nM; IC50 (second compound 1 µM): 7980 nM; IC50 (second compound 3.16 µM): < 31.6 nM; IC50 (second compound 10 µM): < 31.6 nM; viability, T/C [1]: 92.1%; viability, T/C [2]: 91.5%; viability, T/C [3]: 84.8%; viability, T/C [4]: 109%; viability, T/C [5]: 90%; viability, T/C [6]: 46.5%; viability, T/C [7]: 83%; viability, T/C [8]: 92%; viability, T/C [9]: 101%; viability, T/C [10]: 112%; viability, T/C [11]: 87.9%; viability, T/C [12]: 48.4%; viability, T/C [13]: 100%; viability, T/C [14]: 94.2%; viability, T/C [15]: 91.4%; viability, T/C [16]: 104%; viability, T/C [17]: 92.8%; viability, T/C [18]: 43.7%; viability, T/C [19]: 84.9%; viability, T/C [20]: 80.1%; viability, T/C [21]: 76.2%; viability, T/C [22]: 79.5%; viability, T/C [23]: 85.4%; viability, T/C [24]: 42.4%; viability, T/C [25]: 21.9%; viability, T/C [26]: 16.6%; viability, T/C [27]: 26.8%; viability, T/C [28]: 21.9%; viability, T/C [29]: 24.5%; viability, T/C [30]: 16%; viability, T/C [31]: 38.5%; viability, T/C [32]: 41.4%; viability, T/C [33]: 41.6%; viability, T/C [34]: 47.6%; viability, T/C [35]: 44.9%; viability, T/C [36]: 34.1%
